In US6894168B2, “Carbamoyl tetrahydropyridine derivatives” (Taisho Pharmaceutical Co., Ltd., priority 1999, dated 2005):

Biological target: T1, CRF receptor (Rattus norvegicus, UniProt P35353)
T1 construct: The frontal cortex of rats was homogenized in a 50 mM Tris hydrochloric acid buffer; from tissue; host or cells: rat frontal cortex membranes
T1 sequence (P35353 24-415): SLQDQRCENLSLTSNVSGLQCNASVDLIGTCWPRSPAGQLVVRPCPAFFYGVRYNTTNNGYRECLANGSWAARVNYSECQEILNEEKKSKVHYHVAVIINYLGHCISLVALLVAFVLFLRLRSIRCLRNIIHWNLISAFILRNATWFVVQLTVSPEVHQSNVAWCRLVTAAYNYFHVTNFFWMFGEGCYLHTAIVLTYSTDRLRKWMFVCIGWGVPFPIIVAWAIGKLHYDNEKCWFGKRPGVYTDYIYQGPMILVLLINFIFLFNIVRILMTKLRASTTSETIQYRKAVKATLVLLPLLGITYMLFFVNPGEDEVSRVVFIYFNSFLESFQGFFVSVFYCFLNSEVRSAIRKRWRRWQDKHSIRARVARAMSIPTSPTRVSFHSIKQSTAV
Assay: CRF receptor binding experiment (125I-CRF, rat frontal cortex membranes)
Conditions: frontal cortex membranes of rats 0.3 mg protein/ml; 125I-CRF 0.2 nM; 2 hours at 25° C.; read-out: IC50 (concentration of the test agent for controlling 50% of the binding of 125I-CRF)
Description: Experimental Example [CRF receptor binding experiment]
As a receptor preparation, the frontal cortex membranes of rats were employed.
As a ^125I labeled ligand, ^125I-CRF was employed.
The binding reaction employing a ^125I labeled ligand was carried out in the following method as described in The Journal of Neuroscience, 7, 88 (1987).
Preparation of the receptor membrane preparations: The frontal cortex of rats was homogenized in a 50 mM Tris hydrochloric acid buffer (pH 7.0) containing 10 mM MgCl2 and 2 mM EDTA, and subsequently, the homogenized mixture was centrifuged at 48,000×g. The precipitate was washed once with the Tris hydrochloric acid buffer. The precipitate was suspended in a 50 mM tris hydrochloric acid buffer (pH 7.0) containing 10 mM MgCl2, 2 mM EDTA, 0.1% bovine serum albumin, and 100 kalliklein unit/ml aprotinin, to produce a membrane preparation.
CRF receptor binding experiment: The membrane preparation (0.3 mg protein/ml), ^125I-CRF (0.2 nM), and a test agent were reacted for 2 hours at 25° C. […] After completion of the washing, the radioactivity of the filter paper was measured by a gamma counter.
The binding quantity obtained when the reaction was carried out in the presence of 1 μM CRF was determined as nonspecific binding of ^125I-CRF, while the difference between the total binding and the nonspecific binding was determined as a specific binding. […]

CSc1cc(C(C)C)ccc1-n1cc(C)c2c(N3CC=C(C(N)=O)CC3)nc(C)nc21 [Com. No. 07, 4-(4-carbamoyl-1,2,3,6-tetrahydropyridin-1-yl)-2,5-dimethyl-7-(4-isopropyl-2-methylthiophenyl)-7H-pyrrolo[2,3-d]pyrimidine] was tested, and the IC50 was at most 100 nM.
